# ChEMBL document CHEMBL1148555, “Macrocyclic peptidomimetic inhibitors of beta-secretase (BACE): first X-ray structure of a macrocyclic peptidomimetic-BACE complex” (Bioorg Med Chem Lett, 2006)
# Experiments:
# Beta-secretase 1 = Beta-secretase 1 (Homo sapiens, UniProt P56817); experiment: Inhibition of recombinant human BACE1 in FRET assay
# [1] = Inhibition of Abeta peptide production in HEK293 cells overexpressing APP751swe; type: functional, cell-based; details: Homo sapiens
# Sequence of Beta-secretase 1 (P56817 whole entry): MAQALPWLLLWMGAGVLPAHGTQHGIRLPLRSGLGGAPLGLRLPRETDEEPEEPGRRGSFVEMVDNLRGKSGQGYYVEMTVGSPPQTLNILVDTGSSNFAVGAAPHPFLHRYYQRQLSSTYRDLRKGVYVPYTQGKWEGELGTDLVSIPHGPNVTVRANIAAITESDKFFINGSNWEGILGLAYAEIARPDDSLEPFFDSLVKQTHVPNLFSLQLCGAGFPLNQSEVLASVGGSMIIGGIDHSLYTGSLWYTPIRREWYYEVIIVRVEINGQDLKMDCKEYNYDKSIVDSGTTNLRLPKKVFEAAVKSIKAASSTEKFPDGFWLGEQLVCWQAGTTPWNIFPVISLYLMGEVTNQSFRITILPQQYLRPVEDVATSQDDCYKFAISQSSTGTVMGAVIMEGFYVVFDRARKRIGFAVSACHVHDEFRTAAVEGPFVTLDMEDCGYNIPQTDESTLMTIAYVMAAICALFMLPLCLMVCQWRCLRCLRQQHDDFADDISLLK
Compound,IC50 (Beta-secretase 1) [µM],IC50 [1] [µM]
CC(C)[C@H](NC(=O)CC[C@H](O)[C@@H]1CCCCCC[C@H](NC(=O)OC(C)(C)C)C(=O)N[C@@H](C)C(=O)N1)C(=O)NCc1ccccc1,9.7,> 100
CC(C)[C@H](NC(=O)OC(C)(C)C)C(=O)N[C@@H](C)C(=O)N[C@@H](Cc1ccccc1)[C@@H](O)C[C@@H](C)C(=O)N[C@H](C(=O)NCc1ccncc1)C(C)C,–,2.83
